Data set [1] can be described thus: Chemical stability of the compound at pH 7.4. The class given is physicochemical. The following applies: buffer.
Data set [2] has as its target T1, 1,4-dihydroxy-2-naphthoyl-CoA synthase (Mycobacterium tuberculosis, UniProt P9WNP5).
T1 sequence (P9WNP5 whole entry): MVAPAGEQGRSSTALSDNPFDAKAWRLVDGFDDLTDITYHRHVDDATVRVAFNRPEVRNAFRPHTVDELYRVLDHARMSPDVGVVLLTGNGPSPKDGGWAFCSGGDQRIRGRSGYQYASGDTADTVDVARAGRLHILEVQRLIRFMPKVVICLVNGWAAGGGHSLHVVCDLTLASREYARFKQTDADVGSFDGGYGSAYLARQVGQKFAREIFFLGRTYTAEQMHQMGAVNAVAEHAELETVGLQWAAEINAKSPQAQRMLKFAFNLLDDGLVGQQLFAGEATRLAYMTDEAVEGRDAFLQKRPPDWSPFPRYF
Nature of the data set: Inhibition of Mycobacterium tuberculosis MenB expressed in Escherichia coli BL21 (DE3) assessed as formation of DHNA-CoA from OSB-CoA by enzyme coupled-assay in presence of Escherichia coli MenE.

Data set [3] addresses T1, 1,4-dihydroxy-2-naphthoyl-CoA synthase. Briefly: Inhibition of Mycobacterium tuberculosis MenB expressed in Escherichia coli BL21 (DE3) assessed as formation of DHNA-CoA from OSB-CoA by enzyme coupled-assay in presence of Escherichia coli MenE preincubated for 1 hr.
In data set [4] the test system is Mycobacterium tuberculosis. Briefly: Antimycobacterial activity against Mycobacterium tuberculosis H37Rv after 5 to 7 days under […] condition by microplate dilution assay. It counts as functional.
Data set [5] is described as follows: Half life of the compound at pH 7.4. The class given is physicochemical.
Data set [6] has as its target T2, 1,4-dihydroxy-2-naphthoyl-CoA synthase (Mycobacterium tuberculosis) (UniProt P9WNP5).
T2 sequence (whole entry): T1 sequence (P9WNP5 whole entry)
Nature of the data set: Inhibition of Mycobacterium tuberculosis MenB expressed in Escherichia coli BL21 (DE3) assessed as formation of DHNA-CoA from OSB-CoA at 50 uM by enzyme coupled-assay in presence of Escherichia coli MenE.

For data set [7], the target named is T1, 1,4-dihydroxy-2-naphthoyl-CoA synthase. Briefly: Non-competitive inhibition of Mycobacterium tuberculosis MenB expressed in Escherichia coli BL21 (DE3) by Lineweaver-Burk plot analysis.
The target is the same in data set [8]. Briefly: Inhibition of Mycobacterium tuberculosis MenB expressed in Escherichia coli BL21 (DE3) by Lineweaver-Burk plot analysis.
Data set [9] in a line: Selectivity index, ratio of cytotoxicity against african green monkey Vero cells to MIC for Mycobacterium tuberculosis H37Rv. It counts as functional.
Data set [10] deals with Mycobacterium tuberculosis. Nature of the data set: Antibacterial activity against non-replicating Mycobacterium tuberculosis H37Rv by low oxygen recovery assay. It counts as functional.

Values after ≈ are worked out from the molar mass of the structure shown. Active and inactive are the calls of the source. The calls are words filed in the database; no cut-off is given here.

For `[2H]C([2H])(C(=O)c1ccccc1Cl)C(N[C@@H](C)c1ccccc1)C(=O)O` (stereo partly drawn), the Stability result in data set [1] is on record as “Stable”.
By IC50 is commonly meant the point on the concentration scale where inhibition reaches its midpoint. For `CC(C)(COP(=O)(O)OP(=O)(O)OC[C@H]1O[C@@H](n2cnc3c(N)ncnc32)[C@H](O)[C@@H]1OP(=O)(O)O)[C@@H](O)C(=O)NCCC(=O)NCCSC(CC(=O)c1ccccc1F)C(=O)O` (stereo partly drawn), the IC50 in data set [2] was 204 nM.
Same read-out and setting: the figure for `CC(C)(COP(=O)(O)OP(=O)(O)OC[C@H]1O[C@@H](n2cnc3c(N)ncnc32)[C@H](O)[C@@H]1OP(=O)(O)O)[C@@H](O)C(=O)NCCC(=O)NCCSC(=O)CCC(=O)c1ccc(Cl)cc1Cl` is 2200 nM; for `CC(C)(COP(=O)(O)OP(=O)(O)OC[C@H]1O[C@@H](n2cnc3c(N)ncnc32)[C@H](O)[C@@H]1OP(=O)(O)O)[C@@H](O)C(=O)NCCC(=O)NCCSCCC(=O)c1ccc(Cl)cc1Cl` it is greater than 400000 nM.
The MIC is the least concentration at which growth counts as inhibited. As usually defined, the half-life is the time in which the quantity being followed falls by half. With `C[C@H](NC(CC(=O)c1ccc(F)cc1)C(=O)O)c1ccccc1` (stereo partly drawn), the IC50 was 14400 nM in data set [3] and greater than 120000 nM in data set [2]. Moreover, 12.5 µg/mL (≈ 39.6 µM) was the least that counted as inhibitory in data set [4] (MIC). Also, in data set [5], the half-life is 12.2 h.
On to `C[C@H](NC(C(=O)O)C(F)(F)C(=O)c1ccc(Cl)cc1)c1ccccc1` (stereo partly drawn), for which the Stability result in [1] was “Stable”. Besides, the inhibition result in data set [6] was “inactive”.
Turning to `C[C@H](NC(CC(=O)c1ccccc1Cl)C(=O)O)c1ccccc1` (stereo partly drawn), the half-inhibitory concentration (IC50) in data set [3] is 8400 nM; in data set [2], greater than 120000 nM. Moreover, the minimal inhibitory concentration (MIC) in data set [4] came out at 50 µg/mL (≈ 151 µM). Also, in data set [5], the half-life is 0.4 h.
One may read the Ki as a dissociation constant, usually derived from enzyme kinetics or from competition with a known ligand. On to `CC(C)(COP(=O)(O)OP(=O)(O)OC[C@H]1O[C@@H](n2cnc3c(N)ncnc32)[C@H](O)[C@@H]1OP(=O)(O)O)[C@@H](O)C(=O)NCCC(=O)NCCSC(CC(=O)c1ccc(Cl)cc1Cl)C(=O)O` (stereo partly drawn), for which the Ki in [7] came out at 286 nM; in [8], 49 nM. Moreover, in data set [2], the IC50 came out at 106 nM.
As for `CC(C)(COP(=O)(O)OP(=O)(O)OC[C@H]1O[C@@H](n2cnc3c(N)ncnc32)[C@H](O)[C@@H]1OP(=O)(O)O)[C@@H](O)C(=O)NCCC(=O)NCCSC(CC(=O)c1ccccc1Br)C(=O)O` (stereo partly drawn), in data set [2], the half-maximal inhibitory concentration (IC50) stood at 135 nM.
For `O=C(CC(NC(=O)c1ccccc1)C(=O)O)c1ccc(Cl)cc1` (stereo not drawn), the Stability result in [1] is reported as “Stable”. Also, in [6], the inhibition entry was “inactive”.
Regarding `CC(C)(COP(=O)(O)OP(=O)(O)OC[C@H]1O[C@@H](n2cnc3c(N)ncnc32)[C@H](O)[C@@H]1OP(=O)(O)O)[C@@H](O)C(=O)NCCC(=O)NCCSC(CC(=O)c1ccccc1I)C(=O)O` (stereo partly drawn), the IC50 in data set [2] turned out to be 421 nM.
The same measure, in the same setting: the figure for `CC(C)(COP(=O)(O)OP(=O)(O)OC[C@H]1O[C@@H](n2cnc3c(N)ncnc32)[C@H](O)[C@@H]1OP(=O)(O)O)[C@@H](O)C(=O)NCCC(=O)NCCSC(CC(=O)c1cccc(Cl)c1)C(=O)O` (stereo partly drawn) is 14100 nM.
Take `COC(=O)/C=C/C(=O)c1ccc(F)cc1`: it took 0.64 µg/mL (≈ 3.07 µM) to inhibit growth in data set [4] (MIC). For the same molecule, the “Selectivity Index” value in data set [9] is listed as greater than 20.
With `CC(C(=O)c1ccc(Cl)cc1)C(N[C@@H](C)c1ccccc1)C(=O)O` (stereo partly drawn), the Stability result in data set [1] is “Stable”. Besides, the inhibition entry in data set [6] was “Active”.
On to `CC(C)(COP(=O)(O)OP(=O)(O)OC[C@H]1O[C@@H](n2cnc3c(N)ncnc32)[C@H](O)[C@@H]1OP(=O)(O)O)[C@@H](O)C(=O)NCCC(=O)NCCSC(CC(=O)c1ccccc1[N+](=O)[O-])C(=O)O` (stereo partly drawn), for which the IC50 in data set [2] was 154 nM.
Turning to `CC(C)(COP(=O)(O)OP(=O)(O)OC[C@H]1O[C@@H](n2cnc3c(N)ncnc32)[C@H](O)[C@@H]1OP(=O)(O)O)[C@@H](O)C(=O)NCCC(=O)NCCSC(CC(=O)c1ccc(Cl)cc1)C(=O)O` (stereo partly drawn), the Ki in data set [7] amounted to 1630 nM; in data set [8], 350 nM. In addition, in [2], the IC50 stood at 468 nM.
For `C[C@H](NC(CC(=O)c1ccccc1C(F)(F)F)C(=O)O)c1ccccc1` (stereo partly drawn), the figures for the IC50 in data set [3] and in data set [2] were 3200 nM and greater than 120000 nM, respectively. The MIC in data set [4] was determined as 25 µg/mL (≈ 68.4 µM). The half-life in data set [5] is 0.2 h.
Turning to `C[C@H](NC(CC(=O)c1ccc(Cl)cc1)C(=O)O)c1ccccc1` (stereo partly drawn), the IC50 is 11700 nM in [3] and greater than 120000 nM in [2]. The molecule further came in with a minimum inhibitory concentration (MIC) in data set [4] of 50 µg/mL (≈ 151 µM). Also, the half-life in data set [5] is 6.8 h.
Take `COc1ccc(C(=O)CC(SCCNC(=O)CCNC(=O)[C@H](O)C(C)(C)COP(=O)(O)OP(=O)(O)OC[C@H]2O[C@@H](n3cnc4c(N)ncnc43)[C@H](O)[C@@H]2OP(=O)(O)O)C(=O)O)cc1` (stereo partly drawn): the IC50 in data set [2] amounted to 33500 nM.
Regarding `COC(=O)/C=C/C(=O)c1ccc(Cl)cc1`, the MIC in data set [4] amounted to 0.64 µg/mL (≈ 2.85 µM); in data set [10], 1.5 µg/mL (≈ 6.68 µM). In [9], the “Selectivity Index” value is greater than 20.
For the molecule `CC(C)(COP(=O)(O)OP(=O)(O)OC[C@H]1O[C@@H](n2cnc3c(N)ncnc32)[C@H](O)[C@@H]1OP(=O)(O)O)[C@@H](O)C(=O)NCCC(=O)NCCSC(CC(=O)c1ccccc1Cl)C(=O)O` (stereo partly drawn), the figures for the inhibition constant Ki in data set [7] and in [8] were 792 nM and 97 nM, respectively. For the same molecule, in [2], the IC50 turned out to be 103 nM.
With `C[C@H](NC(CC(O)c1ccc(Cl)cc1)C(=O)O)c1ccccc1` (stereo partly drawn), the Stability result in [1] is on record as “Stable”. Also, the inhibition result in [6] is “inactive”.
In data set [4], `O=C(O)/C=C/C(=O)c1ccc(Cl)cc1` returned an MIC of 25 µg/mL (≈ 119 µM).
For the molecule `O=C(CC1N=C(c2ccccc2)OC1=O)c1ccc(Cl)cc1` (stereo not drawn), the Stability result in data set [1] is given as “Stable”. The inhibition result in [6] is “inactive”.
In the same order, the values of `C[C@H](SC(CC(=O)c1ccc(Cl)cc1)C(=O)O)c1ccccc1` (stereo partly drawn) are “Stable” and “inactive”.
Consider `COc1ccccc1C(=O)CC(SCCNC(=O)CCNC(=O)[C@H](O)C(C)(C)COP(=O)(O)OP(=O)(O)OC[C@H]1O[C@@H](n2cnc3c(N)ncnc32)[C@H](O)[C@@H]1OP(=O)(O)O)C(=O)O` (stereo partly drawn), for which the IC50 in [2] turned out to be 12100 nM.
As to `COc1ccccc1C(=O)CC(N[C@@H](C)c1ccccc1)C(=O)O` (stereo partly drawn), the IC50 in data set [3] and in data set [2] was greater than 120000 nM each time. In data set [4], this molecule had an MIC of 12.5 µg/mL (≈ 38.2 µM). In data set [5], the half-life was 11.6 h.
For `C[C@H](NC(C(=O)O)C(C)(C)C(=O)c1ccccc1)c1ccccc1` (stereo partly drawn), the Stability entry in data set [1] is listed as “Stable”. Besides, the inhibition result in [6] is “inactive”.
Take `C[C@H](NC(CC(=O)c1ccccc1)C(=O)O)c1ccccc1` (stereo partly drawn): the half-inhibitory concentration (IC50) is 52700 nM in data set [3] and greater than 120000 nM in data set [2]. In data set [4], this molecule came in with a minimal inhibitory concentration (MIC) of 6.25 µg/mL (≈ 21 µM). Also, in [5], the half-life was 11.6 h.

The values are drawn from ChEMBL document CHEMBL2021819, “CoA Adducts of 4-Oxo-4-Phenylbut-2-enoates: Inhibitors of MenB from the M. tuberculosis Menaquinone Biosynthesis Pathway” (ACS Med Chem Lett, 2011).
